This is an account of results in PMC8781550, “The Effect of pH and Sodium Caseinate on the Aqueous Solubility, Stability, and Crystallinity of Rutin towards Concentrated Colloidally Stable Particles for the Incorporation into Functional Foods” (Molecules, 2022).

On the set-up of data set [1]: method as in PMID 25496805, PMID 20201551. The note with it: cited from earlier work.
The nature of data set [2]: Aqueous solubility (recovery) of rutin at various pH (centrifugation, HPLC of supernatant). It is filed as physicochemical. How it is done: Rutin was mixed with Milli-Q® (MilliporeSigma, Burlington, MA, USA) water at various concentrations (0.01 to 10% w/v) and the pH of the mixtures increased gradually (while stirring at 300 rpm) until the full dissolution was achieved. […] Then, the pH was increased further until the complete dissolution. […] Samples were taken at each pH point (i.e., pH 1–11) and at each concentration of rutin.
In order to determine the optimum amount of both rutin and NaCas to achieve the best loading, various concentrations of rutin (0.01–4% w/v) were dissolved in a solution of NaCas (0.2–8% w/v) at pH 11, which was then acidified down to pH 6, where the precipitates were formed. A duration of 15 min between each pH adjustment was allowed, and samples were taken along the process at every pH point (i.e., pH 11, 9, 8, 7, and 6; pH below 6 was not considered as the sample withdrawal was not practical due to the co-precipitation of NaCas and rutin). The withdrawn samples were left for 30 min for the complete formation of the possible precipitates. Each sample was then divided into two equal parts; the first part was centrifuged (3000× g, 20 °C, 10 min) in the Amicon Ultra-15 Centrifugal Filter Units containing a cellulose membrane with a molecular weight cut-off of […] (Ultracel-100K, Millipore, Burlington, MA, USA) to remove both precipitates and colloidally stable complexes, while the second part was simply filtered using a 0.45 µm membrane (Millipore) to remove the precipitates only. The concentration of rutin in the ultrafiltrates, as well as the filtrates (the second part), was determined using HPLC analysis, and the rutin recovery% was calculated correspondingly. As the control, the same concentration of rutin (1%) was also treated and analysed the same way as the rutin–NaCas mixture. In this study, for simplicity, the recovery % of rutin is referred to as its solubility.

The conditions of data set [3]: cited from earlier work.
A short description of data set [4]: Crystallinity of dried rutin at each pH (XRD). It is filed as physicochemical. How it is done: To study the crystallinity of rutin at each pH, samples of rutin at each pH were stored in a desiccator with silica beads (25 °C) to dry and crystallize. The dried materials were ground using a mortar and pestle and then were analysed for the degree of crystallinity at 20.0 °C using a Rigaku Rapid image-plate detector (Rigaku, The Woodlands, TX, USA) set at 127.40 mm. The Cu Kα radiation (λ = 1.540562 Å) was generated by a Rigaku MicroMax007 microfocus (rotating anode generator; Rigaku, The Woodlands, TX, USA) and an Osmic-Rigaku metal multi-layer optic device (Rigaku, USA) was used for focusing and monochromation. Samples were mounted in Hampton CryoLoops (Hampton Research, Aliso Viejo, CA, USA), and data collection was under the control of RAPID II software (Version 2.4.2, Rigaku, USA). The data were background corrected and converted to a line profile with 2DP programme (Version 1.0.3.4, Rigaku, USA), and the resulting diffractograms were compared using CrystalDiffract software (Version 6.5.5, CrystalMaker Software Ltd., Oxfordshire, UK). A 2θ angle range of 5° to 100° was used for the analysis of all the samples.

Data set [5] is described as follows: Chemical stability of rutin at alkaline pH (HPLC). The class given is physicochemical. The note with it: rutin 1% w/v dissolved at pH 11.0 and kept for 30 min.
Details of data set [6]: method as in doi:10.1016/j.foodhyd.2019.05.032. Conditions: cited from earlier work.

Broadly, the logP is the decadic logarithm of the partition coefficient of the neutral form, usually between octanol and water.

As for `C[C@@H]1O[C@@H](OC[C@H]2O[C@@H](Oc3c(-c4ccc(O)c(O)c4)oc4cc(O)cc(O)c4c3=O)[C@H](O)[C@@H](O)[C@@H]2O)[C@H](O)[C@H](O)[C@H]1O` [rutin], the logP in data set [1] is 0.15. Also, the “Aqueous solubility of rutin” value in data set [2] (0.01% w/v rutin in water, regardless of the pH) is reported as “most of the rutin was soluble”. In addition, the “Aqueous solubility (recovery): fraction of rutin soluble” value in data set [2] (dispersion containing 5% rutin, pH 9) is given as “about 90%”. The “Concentration of rutin that could be dissolved” value in data set [2] (pH 11.0) is given as 10 % (w/v). In data set [2] (pH < 6, 1% w/v rutin, regardless of association with NaCas), the “Solubility (recovery) of rutin” value was “almost all rutin was precipitated”. In addition, the Decomposition of rutin result in data set [3] (0.2 M NaOH, with or without beta-cyclodextrin) is given as “slow decomposition”. The Rutin concentration remaining result in data set [3] (after 5 h, pH constantly adjusted to 8) is recorded as “approximately 20%”. Also, the Rutin concentration entry in data set [3] (weak acidic conditions (pH 5)) is “remained almost unchanged”. The “Crystallinity of dried rutin particles (XRD)” value in data set [4] (pH 11 and 10) is reported as “amorphous”; in data set [4] (pH < 8), “crystalline form”; in data set [4] (pH close to 1.0), “crystalline rutin was not present”. In data set [5], the “Decrease in initial concentration of rutin (chemical stability)” value was roughly 10%. Moreover, the Solubility in ethanol result in data set [6] was “about 4 % w/v”.
